What is called IC50 is the point on the concentration scale where inhibition reaches its midpoint.

The text below walks through data of patent US20220356176A1, “Kv11.1-3.1 INHIBITING METHODS AND COMPOSITIONS” (The Johns Hopkins University, priority 2019, published 2022).

Structures can show the parent of a compound that is named as a salt. Bounds are passed on as bounds.

In the test the target is T1, KCNH2-3.1 (Kv11.1-3.1 containing potassium channel; hERG 3.1) (Homo sapiens, UniProt Q12809).
T1 construct: expressed in transfected cells; host or cells: U2OS cells transduced with hERG 3.1 BacMam virus
T1 sequence (Q12809 1-1063 isoform Q12809-7): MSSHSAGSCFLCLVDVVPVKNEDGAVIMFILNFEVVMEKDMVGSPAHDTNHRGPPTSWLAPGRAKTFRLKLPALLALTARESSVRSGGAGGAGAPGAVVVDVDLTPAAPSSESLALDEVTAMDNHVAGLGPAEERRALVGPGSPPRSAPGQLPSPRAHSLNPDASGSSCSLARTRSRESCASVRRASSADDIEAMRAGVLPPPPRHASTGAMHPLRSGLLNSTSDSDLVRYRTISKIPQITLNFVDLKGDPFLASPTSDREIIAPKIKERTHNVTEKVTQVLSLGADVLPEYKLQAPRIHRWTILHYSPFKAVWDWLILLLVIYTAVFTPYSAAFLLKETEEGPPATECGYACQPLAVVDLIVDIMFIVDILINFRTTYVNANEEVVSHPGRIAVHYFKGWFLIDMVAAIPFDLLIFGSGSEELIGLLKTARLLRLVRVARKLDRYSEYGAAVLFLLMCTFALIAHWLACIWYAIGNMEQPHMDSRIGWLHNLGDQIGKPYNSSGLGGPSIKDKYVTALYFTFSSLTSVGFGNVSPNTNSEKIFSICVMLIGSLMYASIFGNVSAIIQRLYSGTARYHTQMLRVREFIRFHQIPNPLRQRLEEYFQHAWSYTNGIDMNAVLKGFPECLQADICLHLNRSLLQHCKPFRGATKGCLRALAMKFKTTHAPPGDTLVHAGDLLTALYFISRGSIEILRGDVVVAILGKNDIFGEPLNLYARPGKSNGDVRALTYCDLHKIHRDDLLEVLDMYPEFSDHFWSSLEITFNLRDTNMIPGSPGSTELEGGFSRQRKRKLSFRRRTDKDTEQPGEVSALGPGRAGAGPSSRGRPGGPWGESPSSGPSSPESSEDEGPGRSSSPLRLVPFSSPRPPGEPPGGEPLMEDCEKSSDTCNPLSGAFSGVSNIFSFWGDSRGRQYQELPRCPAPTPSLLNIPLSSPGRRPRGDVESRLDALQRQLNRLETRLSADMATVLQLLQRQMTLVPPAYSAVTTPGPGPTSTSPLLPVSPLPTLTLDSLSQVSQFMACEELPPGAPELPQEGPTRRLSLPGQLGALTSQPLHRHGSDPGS
In words: KCNH2-3.1 inhibition ion (thallium) flux assay, FluxOR. It is filed as cell-based. Particulars: U2OS cells transduced with hERG 3.1 Bacmam virus, 5 minutes compound incubation, read-out: Activity range (IC50). The text has this: The ability of the presently disclosed compounds to inhibit the activity of the ion channel produced from the KCNH2-3.1 transcript may be determined by methods known to those in the art for measuring ion channel inhibition. One method for measuring ion channel activity uses a thallium flux assay (Titus et al., 2009; FluxOR™ kit from Life Technologies). This assay measures the passage of thallium through the channel as indicated by a thallium sensitive dye loaded into the cell.
The ability of compounds to inhibit the activity of KCNH2-3.1 was determined by an ion flux assay as described (Titus et al, 2009, which is incorporated herein by reference). U2OS cells were cultured in media containing DMEM, 10% FBS, and Penicillin/Streptomycin. Cells were grown to 90% confluency then washed with PBS and pelleted. Cells were resuspended in DMEM containing 2% FBS and incubated with hERG or hERG 3.1 Bacmam virus for 4 hours at room temperature in the dark. Cells were plated onto clear-bottom PDL coated 1536 well plates and allowed to grow 16-20 hours at 37° C. FluxOr loading buffer containing 10mM Red Dye #40 was added to each well and incubated for 45 minutes. Plates were loaded and analyzed in Hamamatsu FDSS (7000) using a two-addition protocol. In the first addition step of the assay, compounds to be tested and the cell compound mixture were incubated together for 5 minutes before addition of FluxOr stimulus buffer as the second addition step. Channel activity was detected and analyzed via the slope of fluorescence intensities versus the time of first 30 s after compound addition was calculated from the kinetic results. The signal-to-basal ratio was calculated as the slope of DMSO solvent controls in the stimulated group divided by the slope of an unstimulated group. The concentration responses of compound inhibition from the experiments were analyzed with Prism software (GraphPad, San Diego, Calif., USA).
As the data herein indicate, a broad variety of compounds of formula (I), formula (II), or formula (III) were found effective as KCNH2-3.1 containing potassium channel inhibitors at low concentrations. […] In the Table 1 below, a single plus (+) is associated with an IC50 of from about 2-10 μM; two plus signs (++) is associated with an IC50 from about 500 nM to about 2 μM; and three plus signs (+++) is associated with an IC50 less than about 500 nM.
As for `O=C(CNc1ccccc1)Nc1ccc(N2CCCCCC2)nc1` [Example 30, 2-anilino-N-[6-(azepan-1-yl)-3-pyridyl]acetamide], the IC50 was in the range of 500 to 2000 nM.

Turning to `O=C(CN1CCCC(F)C1)Nc1ccc(N2CCCCCC2)cc1` (stereo not shown) [Example 8, N-[4-(azepan-1-yl)phenyl]-2-(3-fluoro-1-piperidyl)acettamide], the IC50 fell in the range of 500 to 2000 nM.

`O=C(CN1CCCC1)Nc1ccc(N2CCCCCC2)cc1` [Example 14, N-[4-(azepan-1-yl)phenyl]-2-pyrrolidin-1-yl-acetamide hydrochloride]: the IC50 was 2000 to 10000 nM.

For `O=C(CN1CCCOCC1)Nc1ccc(N2CCCCCC2)cc1` [Example 7, N-[4-(azepan-1-yl)phenyl]-2-(1,4-oxazepan-4-yl)acetamide hydrochloride], the IC50 was 2000 to 10000 nM.

On to `O=C(CN1CCCCC1)Nc1ccc(N2CCCCCC2)cn1` [Example 34], for which the IC50 is 2000 to 10000 nM.

Regarding `CC(C)(O)C1CCN(CC(=O)Nc2ccc(N3CCCCCC3)cc2)CC1` [Example 12, N-[4-(azepan-1-yl)phenyl]-2-[4-(1-hydroxy-1-methyl-ethyl)-1-piperidyl]acetamide], the IC50 was 2000 to 10000 nM.

Take `CC1CCN(c2ccc(NC(=O)CN3CC4CCC3CC4)cn2)CC1` [Example 3, 2-(8-azabicyclo[3.2.1]octan-8-yl)-N-16-(4-methyl-1-piperidyl)-3-pyridyljacetamide]: the IC50 lay within 500 to 2000 nM.

Take `CC1CC(c2ccccc2)CCN1CC(=O)Nc1ccc(N2CCCCCC2)cc1` (mixture of isomers) [Example 19, N-[4-(azepan-1-yl)phenyl]-2-(2-methyl-4-phenyl-1-piperidyl)acetamide]: the IC50 was 500 to 2000 nM.

As for `O=C(CNC1CCCCC1)Nc1ccc(N2CCCCCC2)nc1` [Example 27, N-[6-(azepan-1-yl)-3-pyridyl]-2-[cyclohexylamino]acetamide], the IC50 was in the range of 2000 to 10000 nM.

Take `CC1CCCN(CC(=O)Nc2ccc(N3CCCCCC3)cc2)C1` (stereo not shown) [Example 15]: the IC50 fell in the range of 2000 to 10000 nM.

For the compound `O=C(CN1CCCCC1)Nc1ccc(N2CCCCCC2)nc1` [Example 25, N-[6-(azepan-1-yl)-3-pyridyl]-2-(1-piperidyl)acetamide], the IC50 was in the range of 500 to 2000 nM.

As to `O=C(CN1CCCC(c2cccc(Cl)c2)C1)Nc1ccc(N2CCCCCC2)cc1` (stereo not shown) [Example 17, N-[4-(azepan-1-yl)phenyl]-2-[3-(3-chlorophenyl)-1-piperidyl]acetamide], the IC50 is below 500 nM.

As for `O=C(CN1CCCCC1CO)Nc1ccc(N2CCCCCC2)cc1` (stereo not shown) [Example 11, N-[4-(azepan-1-yl)phenyl]-2-[2-(hydroxymethyl)-1-piperidyl]acetamide], the IC50 is 2000 to 10000 nM.

With `O=C(CNC1CCCCCC1)Nc1ccc(N2CCCCCC2)nc1` [Example 29, N-[6-(azepan-1-yl)-3-pyridyl]-2-(cycloheptylamino)acetamide], the IC50 lay in the range of 500 to 2000 nM.

On to `O=C(CN1CCCCC1)Nc1ccc(N2CCCOCC2)cc1` [Example 1, N-[4-(1,4-oxazepan-4-yl)phenyl]-2-(1-piperidyl)acetamide hydrochloride], for which the IC50 was in the range of 2000 to 10000 nM.

Consider `O=C(CN1CCC(c2ccc(F)cc2)C1)Nc1ccc(N2CCCCCC2)cc1` (stereo not shown) [Example 20, N-[4-(azepan-1-yl)phenyl]-2-[3-(4-fluorophenyl)pyrrolidin-1-yl]acetamide], for which the IC50 fell in the range of 500 to 2000 nM.

For `O=C(CN1CCCCC1c1ccc(Cl)cc1)Nc1ccc(N2CCCCCC2)cc1` (stereo not shown) [Example 16, N-[4-(azepan-1-yl)phenyl]-2-[2-(4-chlorophenyl)-1-piperidyl]acetamide], the IC50 is 500 to 2000 nM.

With `O=C(CN1CC2CCC(C2)C1)Nc1ccc(N2CCCCCC2)nc1` [Example 32, 2-(3-azabicyclo[3.2.1]octan-3-yl)-N-[6-(azepan-1-yl)-3-pyridyl]acetamide], the IC50 is below 500 nM.

Regarding `CC(C(=O)Nc1ccc(N2CCCCCC2)cc1)N1CCCCC1` (stereo not shown) [Example 24, N-[4-(azepan-1-yl)phenyl]-2-(1-piperidyl)propanamide], the IC50 is 2000 to 10000 nM.

Consider `O=C(CN1CCCCC1)Nc1cnc(N2CCCCCC2)nc1` [Example 35, N-[2-(azepan-1-yl)pyrimidin-5-yl]-2-(1-piperidyl)acetamide], for which the IC50 lay in the range of 500 to 2000 nM.

With `O=C(CCN1CCCCC1)Nc1ccc(N2CCCCCC2)cc1` [Example 23], the IC50 was in the range of 2000 to 10000 nM.

As to `O=C(CN1CCC(CO)CC1)Nc1ccc(N2CCCCCC2)cc1` [Example 10, N-[4-(azepan-1-yl)phenyl]-2-[4-(hydroxymethyl)-1-piperidyl]acetamide], the half-maximal inhibitory concentration (IC50) was 2000 to 10000 nM.

Consider `CN(CC(=O)Nc1ccc(N2CCCCCC2)nc1)C1CCCCC1` [Example 28], for which the IC50 lay within 2000 to 10000 nM.

In the case of `O=C(CN1CCCC(OCc2ccccc2)C1)Nc1ccc(N2CCCCCC2)cc1` (stereo not shown) [Example 22, N-[4-(azepan-1-yl)phenyl]-2-(3-benzyloxy-1-piperidyl)acetamide], the IC50 is 500 to 2000 nM.

`O=C(CN1CCCCC1)Nc1ccc(N2CCCCCC2)cc1F` [Example 38, N-4-(azepan-1-yl)-2-fluoro-phenyl1-2-(1-piperidyl)acetamide]: the IC50 is 2000 to 10000 nM.

As for `O=C(CN1CCCCC1C(F)(F)F)Nc1ccc(N2CCCCCC2)cc1` (stereo not shown) [Example 9, N-[4-(azepan-1-yl)pheny]-2-[2-(trifluoromethyl)-1-piperidyl]acetamide], the IC50 was 500 to 2000 nM.

For the compound `O=C(CN1CCC(O)(c2ccc(Cl)cc2)CC1)Nc1ccc(N2CCCCCC2)cc1` [Example 13, N-[4-(azepan-1-yl)phenyl]-2-[4-(4-chlorophenyl)-4-hydroxy-1-piperidyl]acetamide], the IC50 was below 500 nM.

Consider `N#Cc1cccc(C2CCN(CC(=O)Nc3ccc(N4CCCCCC4)cc3)CC2)c1` [Example 18, N-[4-(azepan-1-yl)phenyl]-2-[4-(3-cyanophenyl)-1-piperidyl]acetamide], for which the IC50 is below 500 nM.

As for `O=C(CNCc1ccccc1)Nc1ccc(N2CCCCCC2)nc1` [Example 31, N-[6-(azepan-1-yl)-3-pyridyl]-2-(benzylamino)acetamide], the IC50 fell in the range of 2000 to 10000 nM.

Regarding `O=C(CN1C2CCC1CC2)Nc1ccc(N2CCCCCC2)nc1` [Example 26, 2-(7-azabicyclo[2.2.1]heptan-7-yl)-N-[6-(azepan-1-yl)-3-pyridyl]acetamide], the IC50 was in the range of 500 to 2000 nM.

Regarding `O=C(CN1CCCCC1)Nc1ccc(N2CCCCCC2)c(F)c1` [Example 36, N-[4-(azepan-1-yl)-3-fluoro-phenyl]-2-(1-piperidyl)acetamide], the IC50 is below 500 nM.
